Values after ≈ are worked out from the molar mass of the structure shown.
Legend:
Assay type in all cases: cell-based
[1] = test system: dengue virus (DENV); assay: anti-dengue virus activity (EC50)
[2] = test system: drug resistant strains of Acinetobacter baumannii; assay: anti-drug resistant strains of Acinetobacter baumannii (MIC)
[3] = test system: Zika virus; assay: anti-Zika virus activity (EC50)
[4] = test system: Zika virus (ZIKV); assay: anti-Zika virus activity (inhibition rate); settings: for inhibition at 11 µM / inhibition at 33 µM: Zika virus
[5] = test system: Usutu virus (USUV); assay: anti-Usutu virus activity (inhibition rate); settings: for inhibition at 11 µM / inhibition at 33 µM: Usutu virus
[6] = resistant strain of Acinetobacter baumannii no. 17
[7] = resistant strain of Acinetobacter baumannii no. 18
[8] = resistant strain of Acinetobacter baumannii no. 19
[9] = resistant strain of Acinetobacter baumannii no. 20

SMILES | EC50 [1] | MIC [2, 6] | MIC [2, 7] | MIC [2, 8] | MIC [2, 9] | also measured
O=C1[C@@H]2CCc3ccccc3N2[C@@H](Cc2ccc([N+](=O)[O-])cc2)N1Nc1ccccc1 [ZXD-100B] | 0.85 µM |  |  |  |  | 
C=C(C)c1ccc(C2N(Nc3ccccc3)C(=O)C3CCc4ccccc4N32)cc1 (centres unmarked) [ZXD-89A] | 0.74 µM |  |  |  |  | 
O=C(NNc1ccccc1)[C@@H]1Cc2ccccc2N1 [ZDL-101] |  | 4 µg/mL (≈ 15.8 µM) | 4 µg/mL (≈ 15.8 µM) | 4 µg/mL (≈ 15.8 µM) | 2 µg/mL (≈ 7.9 µM) | 
O=C(NNc1ccc(F)cc1)c1cc2ccccc2[nH]1 [ZFD-44] |  | 0.5 µg/mL (≈ 1.86 µM) | 1 µg/mL (≈ 3.71 µM) | 1 µg/mL (≈ 3.71 µM) | 1 µg/mL (≈ 3.71 µM) | 
O=C1C2CCc3ccccc3N2C(c2ccc(O)cc2)N1Nc1ccc([N+](=O)[O-])cc1 (centres unmarked) [ZXD-133A] | 19.5 µM |  |  |  |  | 
Nc1ccc(NNC(=O)[C@@H]2Cc3ccccc3N2)cc1 [ZBM-8] |  | 2 µg/mL (≈ 7.45 µM) | 4 µg/mL (≈ 14.9 µM) | 2 µg/mL (≈ 7.45 µM) | 4 µg/mL (≈ 14.9 µM) | 
O=C(NNc1ccccc1)[C@@H]1Cc2ccccc2CN1 [ZSD-16] |  | 2 µg/mL (≈ 7.48 µM) | 8 µg/mL (≈ 29.9 µM) | 4 µg/mL (≈ 15 µM) | 4 µg/mL (≈ 15 µM) | 
O=C1[C@@H]2CCc3ccccc3N2[C@@H](c2ccccc2O)N1Nc1ccccc1 [ZXD-120B] | 6.5 µM |  |  |  |  | 
O=C(NNc1ccc(F)cc1)c1c[nH]c2ccccc12 [ZBM-20] |  | 0.5 µg/mL (≈ 1.86 µM) | 1 µg/mL (≈ 3.71 µM) | 0.5 µg/mL (≈ 1.86 µM) | 0.5 µg/mL (≈ 1.86 µM) | 
O=C1[C@@H]2CCc3ccccc3N2[C@@H](Cc2ccc(O)cc2)N1Nc1ccccc1 [ZXD-127B] | 5.2 µM |  |  |  |  | 
O=C(NNc1ccc(OCc2ccccc2)cc1)[C@@H]1Cc2ccccc2N1 [ZBM-6] |  | 2 µg/mL (≈ 5.56 µM) | 4 µg/mL (≈ 11.1 µM) | 2 µg/mL (≈ 5.56 µM) | 4 µg/mL (≈ 11.1 µM) | 
O=C1[C@H]2CCc3ccccc3N2C(Cc2ccc([N+](=O)[O-])cc2)N1Nc1ccccc1 (some centres unmarked) [ZXD-100A] | 2 µM |  |  |  |  | 
O=C(NNc1ccc(F)cc1)[C@H]1CCNC1 [ZBM-19] |  | 2 µg/mL (≈ 8.96 µM) | 2 µg/mL (≈ 8.96 µM) | 2 µg/mL (≈ 8.96 µM) | 1 µg/mL (≈ 4.48 µM) | 
O=C(NNc1ccc([N+](=O)[O-])cc1)C1CCc2ccccc2N1 (centres unmarked) [ZXD-45] | 0.31 µM |  |  |  |  | 
O=C(NNc1ccccc1)C1CCCCN1 (centres unmarked) [ZXD-2-1] |  | 4 µg/mL (≈ 18.2 µM) | 4 µg/mL (≈ 18.2 µM) | 8 µg/mL (≈ 36.5 µM) | 4 µg/mL (≈ 18.2 µM) | 
O=C(NNc1ccccc1)c1c[nH]c2ccccc12 [ZFD-38] |  | 8 µg/mL (≈ 31.8 µM) | 8 µg/mL (≈ 31.8 µM) | 8 µg/mL (≈ 31.8 µM) | 4 µg/mL (≈ 15.9 µM) | 
O=C1[C@@H]2CCc3ccccc3N2[C@@H](c2ccc([N+](=O)[O-])cc2)N1Nc1ccc([N+](=O)[O-])cc1 [ZXD-78A] | 0.17 µM |  |  |  |  | 
O=C(NNc1ccccc1)c1ccc[nH]1 [ZFD-42] |  | 4 µg/mL (≈ 19.9 µM) | 4 µg/mL (≈ 19.9 µM) | 4 µg/mL (≈ 19.9 µM) | 1 µg/mL (≈ 4.97 µM) | 
COc1ccc(C2c3c([nH]c4ccccc34)C(=O)N2Nc2ccc([N+](=O)[O-])cc2)cc1OC (centres unmarked) [ZFD-33A + B] |  |  |  |  |  | EC50 [3]: 17.2 µM
COc1ccc([C@H]2N(Nc3ccc([N+](=O)[O-])cc3)C(=O)[C@@H]3Cc4ccccc4N32)cc1O[Si](C)(C)C(C)(C)C [ZDL-93] | 24.8 µM |  |  |  |  | 
O=C1[C@@H]2CCc3ccccc3N2[C@@H](Cc2ccccc2)N1Nc1ccc([N+](=O)[O-])cc1 [ZXD-107A] | 0.12 µM |  |  |  |  | inhibition at 11 µM ([4]; Drug concentration 11 μM): > 100%; inhibition at 11 µM ([5]; Drug concentration 11 μM): < 0%; inhibition at 33 µM ([5]; Drug concentration 33 μM): < 0%
O=C1[C@@H]2CCc3ccccc3N2[C@@H](c2ccccc2)N1Nc1ccc([N+](=O)[O-])cc1 [ZXD-106] | 5.2 µM |  |  |  |  | 
O=C1C2Cc3ccccc3CN2C(c2ccco2)N1Nc1ccccc1 (centres unmarked) [ZSD-28B] |  | > 64 µg/mL | 8 µg/mL (≈ 23.2 µM) | 8 µg/mL (≈ 23.2 µM) | 8 µg/mL (≈ 23.2 µM) | 

SMILES | EC50 [1] | MIC [2, 6] | MIC [2, 7] | MIC [2, 8] | MIC [2, 9] | also measured
O=C1C2CCc3ccccc3N2C(c2cc3ccccc3s2)N1Nc1ccccc1 (centres unmarked) [ZXD-178A] |  |  |  |  |  | Anti-ZIKV activity (inhibition rate) ([4]; Drug concentration 11 μM): +++ (+++: Complete suppression); Anti-USUV activity (inhibition rate) ([5]; Drug concentration 11 μM): + (+: Partial suppression)
O=C1[C@@H]2CCc3ccccc3N2[C@@H](c2ccc(O)cc2)N1c1ccc([N+](=O)[O-])cc1 [ZXD-121] |  |  |  |  |  | inhibition at 11 µM ([4]; Drug concentration 11 μM): > 100%; inhibition at 11 µM ([5]; Drug concentration 11 μM): < 0%; inhibition at 33 µM ([5]; Drug concentration 33 μM): < 0%
O=C(NNc1ccc(F)cc1)c1ccc[nH]1 [ZBM-21] |  | 0.5 µg/mL (≈ 2.28 µM) | 0.5 µg/mL (≈ 2.28 µM) | 0.5 µg/mL (≈ 2.28 µM) | 0.5 µg/mL (≈ 2.28 µM) | 
COc1cc(C2N(c3ccc([N+](=O)[O-])cc3)C(=O)[C@@H]3Cc4ccccc4CN23)ccc1O (some centres unmarked) [ZSD-8] |  |  |  |  |  | inhibition at 11 µM ([4]; Drug concentration 11 μM): 0 to 100%; inhibition at 33 µM ([4]; Drug concentration 33 μM): > 100%; inhibition at 11 µM ([5]; Drug concentration 11 μM): < 0%; inhibition at 33 µM ([5]; Drug concentration 33 μM): < 0%
O=C1C2CCCC2C(c2ccc(Cl)cc2)N1c1ccccc1 (centres unmarked) [ZDL-62] |  |  |  |  |  | inhibition at 11 µM ([4]; Drug concentration 11 μM): < 0%; inhibition at 33 µM ([4]; Drug concentration 33 μM): 0 to 100%; inhibition at 11 µM ([5]; Drug concentration 11 μM): < 0%; inhibition at 33 µM ([5]; Drug concentration 33 μM): > 100%
CC(C)(C)[Si](C)(C)Oc1ccc(C2N(Nc3ccc([N+](=O)[O-])cc3)C(=O)C3CCc4ccccc4N32)cc1 (centres unmarked) [ZXD-132A] | 0.64 µM |  |  |  |  | 
CC(C)(C)[Si](C)(C)OCc1ccc(C2N(Nc3ccccc3)C(=O)C3CCc4ccccc4N32)cc1 (centres unmarked) [ZXD-156B] |  |  |  |  |  | inhibition at 11 µM ([4]; Drug concentration 11 μM): > 100%; inhibition at 11 µM ([5]; Drug concentration 11 μM): > 100%
CC1(C)OC[C@]2(C)C(CC[C@@]3(C)[C@H](C[C@H]4N(NS(=O)(=O)c5ccc([N+](=O)[O-])cc5)C(=O)[C@@H]5Cc6ccccc6N54)C(=O)CC[C@@H]32)O1 (some centres unmarked) [ZDL-41] |  |  |  |  |  | Anti-ZIKV activity (inhibition rate) ([4]; Drug concentration 11 μM): +++ (+++: Complete suppression); Anti-USUV activity (inhibition rate) ([5]; Drug concentration 11 μM): +++ (+++: Complete suppression)
CC(C)(C)[Si](C)(C)Oc1ccc(C2N(Cc3ccccc3)C(=O)C3CCc4ccccc4N32)cc1 (centres unmarked) [ZXD-241B] |  |  |  |  |  | inhibition at 11 µM ([4]; Drug concentration 11 μM): < 0%; inhibition at 33 µM ([4]; Drug concentration 33 μM): > 100%; inhibition at 11 µM ([5]; Drug concentration 11 μM): < 0%; inhibition at 33 µM ([5]; Drug concentration 33 μM): > 100%
O=C1C2CCCC2C(c2ccccc2)N1c1ccc([N+](=O)[O-])cc1 (centres unmarked) [ZDL-61] |  |  |  |  |  | inhibition at 11 µM ([4]; Drug concentration 11 μM): < 0%; inhibition at 33 µM ([4]; Drug concentration 33 μM): 0 to 100%; inhibition at 11 µM ([5]; Drug concentration 11 μM): < 0%; inhibition at 33 µM ([5]; Drug concentration 33 μM): > 100%
COc1ccc([C@H]2N(Nc3ccc([N+](=O)[O-])cc3)C(=O)[C@@H]3Cc4ccccc4N32)cc1OC [ZDL-89] | 11.6 µM |  |  |  |  | 
O=C1[C@@H]2Cc3ccccc3CN2C(c2ccc(O)cc2)N1c1ccc([N+](=O)[O-])cc1 (some centres unmarked) [ZSD-7] |  |  |  |  |  | Anti-ZIKV activity (inhibition rate) ([4]; Drug concentration 11 μM): − (−: Inactive); Anti-ZIKV activity (inhibition rate) ([4]; Drug concentration 33 μM): +++ (+++: Complete suppression); Anti-USUV activity (inhibition rate) ([5]; Drug concentration 11 μM): − (−: Inactive); Anti-USUV activity (inhibition rate) ([5]; Drug concentration 33 μM): +++ (+++: Complete suppression)
O=C1C2CCc3ccccc3N2C(c2ccc(Cl)cc2)N1Nc1ccccc1 (centres unmarked) [ZXD-87A] |  |  |  |  |  | EC50 [3]: 3.4 ± 0.38 µM
CC1(C)OB(c2ccc(C3N(Nc4ccccc4)C(=O)[C@@H]4Cc5ccccc5CN34)cc2)OC1(C)C (some centres unmarked) [ZSD-32] |  |  |  |  |  | inhibition at 11 µM ([4]; Drug concentration 11 μM): < 0%; inhibition at 33 µM ([4]; Drug concentration 33 μM): < 0%; inhibition at 11 µM ([5]; Drug concentration 11 μM): < 0%; inhibition at 33 µM ([5]; Drug concentration 33 μM): 0 to 100%
CC(C)(C)[Si](C)(C)Oc1cccc(C2N(Nc3ccccc3)C(=O)C3CCc4ccccc4N32)c1 (centres unmarked) [ZXD-147B] |  |  |  |  |  | inhibition at 11 µM ([4]; Drug concentration 11 μM): > 100%; inhibition at 11 µM ([5]; Drug concentration 11 μM): > 100%
O=C(NNc1ccccc1)C1CCc2ccccc2N1 (centres unmarked) [ZXD-44] | 1.5 µM | 4 µg/mL (≈ 15 µM) | 8 µg/mL (≈ 29.9 µM) | 8 µg/mL (≈ 29.9 µM) | 2 µg/mL (≈ 7.48 µM) | 
O=C(NNc1ccc(F)cc1)C1CNc2ccccc21 (centres unmarked) [ZBM-11] |  | 1 µg/mL (≈ 3.69 µM) | 2 µg/mL (≈ 7.37 µM) | 1 µg/mL (≈ 3.69 µM) | 1 µg/mL (≈ 3.69 µM) | 
O=C1C2CCCCN2C(c2ccco2)N1c1ccc([N+](=O)[O-])cc1 (centres unmarked) [ZBJ-12A] | 1.2 µM |  |  |  |  | 
O=C(NNc1ccc(F)cc1)[C@@H]1Cc2ccccc2N1 [ZBM-5] |  | 2 µg/mL (≈ 7.37 µM) | 2 µg/mL (≈ 7.37 µM) | 1 µg/mL (≈ 3.69 µM) | 2 µg/mL (≈ 7.37 µM) | 
O=C1C2Cc3ccccc3CN2C(c2ccc(O)c(O)c2)N1Nc1ccccc1 (centres unmarked) [ZSD-30A] |  |  |  |  |  | Anti-ZIKV activity (inhibition rate) ([4]; Drug concentration 11 μM): − (−: Inactive); Anti-ZIKV activity (inhibition rate) ([4]; Drug concentration 33 μM): − (−: Inactive); Anti-USUV activity (inhibition rate) ([5]; Drug concentration 11 μM): − (−: Inactive); Anti-USUV activity (inhibition rate) ([5]; Drug concentration 33 μM): +++ (+++: Complete suppression)
COc1cc(C2N(Nc3ccccc3)C(=O)C3CCc4ccccc4N32)ccc1O[Si](C)(C)C(C)(C)C (centres unmarked) [ZXD-142A] | 1.6 µM |  |  |  |  | EC50 [3]: 1.56 ± 0.21 µM
O=C1C2CCCC2C(c2ccccc2)N1c1ccccc1 (centres unmarked) [ZDL-60] |  |  |  |  |  | inhibition at 11 µM ([4]; Drug concentration 11 μM): < 0%; inhibition at 33 µM ([4]; Drug concentration 33 μM): 0 to 100%; inhibition at 11 µM ([5]; Drug concentration 11 μM): < 0%; inhibition at 33 µM ([5]; Drug concentration 33 μM): 0 to 100%
